This passage reports IC50 results from EP4775577A1, “RAS INHIBITOR” (Tyligand Bioscience (Shanghai) Limited, priority 2023, dated 2025).

Assay [1] deals with KRAS G12V mutant NCI-H727 cells. The assay can be described thus: Proliferation inhibition of NCI-H727 cells, 3D CellTiter-Glo assay (Method B). Type of assay: cell-based, human. Particulars: 3D culture with 0.65% methylcellulose, 5 days, CTG. Put shortly:
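Cells grown in 3D medium (RPMI-1640, 10% FBS, 0.65% methylcellulose) overnight, then treated 5 days at 37 °C, 5% CO2 with 9 threefold dilutions from 10 µM top working concentration, duplicate wells. CellTiter-Glo luminescence read; IC50 (nM) fitted by dose-response-inhibition equation.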
In general terms: Cellular ATP, detected with luciferase, serves as a proxy for viable cell number.

For assay [2], the system named is KRAS G12D mutant AGS cells. The assay can be described thus: Proliferation inhibition of AGS cells, CellTiter-Glo assay. Conditions: 3 days, CTG, read-out: AGS IC50/nM. Type of assay: cell-based, human. Put shortly:
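AGS cells at 1500 cells/well in F12K + 10% FBS were exposed for 3 days at 37°C to nine 3-fold dilutions from 10 µM top concentration, in duplicate. Viability read by CellTiter-Glo luminescence; IC50 (nM) from dose-response-inhibition fitting.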

Setting [3] is: Homo sapiens, NCI-H727, 120 h, Method B, read-out: NCI-H727 IC50/nM.

Where two headings read alike, the source gives them in different places. A value given as a limit tells only on which side of the number the result lay.

With `CN1CC/C(=C\F)[C@](C)(COc2nc(N3CC[C@@H](C#N)[C@H](O)C3)c3cc(C(F)(F)F)c(-c4c(F)ccc5sc(N)c(C#N)c45)c(F)c3n2)C1` (single isomer, unassigned) [Example 252], the IC50 in assay [1] (setting [3]) came to 2.1 nM; in assay [2] (Homo sapiens, AGS, 72 h), 41.5 nM.
For `CCN1CC/C(=C\F)[C@](C)(COc2nc(N3Cc4c(COC)c(C(=O)N(C)C)nn4CC[C@@H]3C)c3cc(Cl)c(-c4ncc(F)c5sc(N)c(C#N)c45)c(C)c3n2)C1` (single isomer, unassigned) [Example 238A], in that order: 6.5 nM and 11.5 nM.
`CN1CC/C(=C\F)[C@](C)(COc2nc(N3CCOC[C@@](C)(O)C3)c3cc(C(F)(F)F)c(-c4ccc(F)c5sc(N)c(C#N)c45)c(F)c3n2)C1` [Example 16]: the IC50 stood at 5 nM in assay [1] (Homo sapiens, NCI-H727, 120 h, read-out: NCI-H727 IC50/nM, Method B) and 13.2 nM in assay [2] (Homo sapiens, AGS, 72 h).
In the case of `CN1CC/C(=C\F)[C@](C)(COc2nc(N3CCCn4nc(C(=O)N(C)C)cc4C3)c3cc(/C=C\F)c(-c4cccc5sc(N)c(C#N)c45)c(F)c3n2)C1` [Example 112], the IC50 was 20.2 nM in assay [1] (setting [3]) and 9.9 nM in assay [2] (Homo sapiens, AGS, 72 h).
For `[2H]C([2H])([2H])N1CC/C(=C\F)[C@](C)(COc2nc(N3Cc4c(C)c(C(=O)N(C)C)nn4CC[C@@H]3C)c3cc(CC)c(-c4c(F)ccc5sc(N)c(C#N)c45)c(F)c3n2)C1` (single isomer, unassigned) [Example 183A], in that order: less than 1.5 nM and less than 1.5 nM.
`[2H]C([2H])([2H])N1CCC(=CF)C(C)(COc2nc(N3CCCn4nc(C(=O)N(C)C)c(Cl)c4C3)c3cc(CC)c(-c4c(F)ccc5sc(N)c(C#N)c45)c(C)c3n2)C1` (stereo not shown) [Example 186]: the IC50 was found to be 5.4 nM in assay [1] (setting [3]) and 4.4 nM in assay [2] (Homo sapiens, AGS, 72 h).
On the same counts, the results for `CN1CC/C(=C\F)[C@](C)(COc2nc(N3CCC[C@@](C)(O)C3)c3cc(C(F)(F)F)c(-c4cccc5sc(N)c(C#N)c45)c(F)c3n2)C1` (atropisomer, axis not shown) [Example 4A, (R)-2-amino-4-(8-fluoro-2-(((S,E)-4-(fluoromethylene)-1,3-dimethylpiperidine-3-yl)methoxy)-4-((R)-3-hydroxy-3-methylpiperidine-1-yl)-6-(trifluoromethyl)quinazoline-7-yl)benzo[b]thiophene-3-carbonitrile] are 66.9 nM and 148 nM.
For `CCN1CCC(=CF)C(C)(COc2nc(N3Cc4cc(C(=O)N5CCC5)nn4CCC3C)c3cc(Cl)c(-c4c(F)ccc5sc(N)c(C#N)c45)c(F)c3n2)C1` (stereo not shown) [Example 254A], in that order: less than 1.5 nM and less than 1.5 nM.
On the same counts, the results for `C[C@H]1CCn2nc(C(=O)N(C)C)cc2CN1c1nc(OC[C@]2(C)CN(C)CC/C2=C\F)nc2c(F)c(-c3ncc(F)c4sc(N)c(C#N)c34)c(C3CC3)cc12` [Example 168A] are 85 nM and 42.1 nM.
For `CCN1CC/C(=C\F)[C@](C)(COc2nc(N3Cc4cc(C(=O)N(C)C)nn4CC[C@@H]3C)c3cc(Cl)c(-c4ncc(F)c5sc(N)c(C#N)c45)c(F)c3n2)C1` (single isomer, unassigned) [Example 231A], the IC50 in assay [1] (setting [3]) came to 4.4 nM; in assay [2] (Homo sapiens, AGS, 72 h) it was 2.5 nM.
As for `CN1CC/C(=C\F)[C@](C)(COc2nc(N3CCCn4nc(C(=O)N(C)C)c(Cl)c4C3)c3cc(C4CC4)c(-c4c(F)ccc5sc(N)c(C#N)c45)c(F)c3n2)C1` (single isomer, unassigned) [Example 161A], the IC50 in assay [1] (setting [3]) worked out at 4.3 nM; in assay [2], 2.4 nM.
Regarding `[2H]C([2H])([2H])N1CCC(=CF)C(C)(COc2nc(N3CCCn4nc(C(=O)N(C)C)c(Cl)c4C3)c3cc(Cl)c(-c4c(F)ccc5sc(N)c(C#N)c45)c(Cl)c3n2)C1` (stereo not shown) [Example 195], the IC50 in assay [1] (setting [3]) was 2.5 nM; in assay [2] (Homo sapiens, AGS, 72 h), 2.5 nM.
As to `Cc1c(-c2ncc(F)c3sc(N)c(C#N)c23)c(Cl)cc2c(N3Cc4cc(C(=O)N(C)C)nn4CC[C@@H]3C)nc(OC[C@]3(C)CN(C)CC/C3=C\F)nc12` [Example 171A], the IC50 is 4.1 nM in assay [1] (setting [3]) and 4.7 nM in assay [2] (Homo sapiens, AGS, 72 h).
In the case of `CN1CC/C(=C\F)[C@](C)(COc2nc(N3CCCN4C(=O)OCC4C3)c3cc(C(F)(F)F)c(-c4cccc5sc(N)c(C#N)c45)c(F)c3n2)C1` (stereo partly shown) [Example 113], the IC50 in assay [1] (setting [3]) is 168 nM; in assay [2] (Homo sapiens, AGS, 72 h) it was 584 nM.
For `CCN1CC/C(=C\F)[C@](C)(COc2nc(N3CCCn4nc(C(=O)N(C)C)c(Cl)c4C3)c3cc(Cl)c(-c4c(F)ccc5sc(N)c(C#N)c45)c(C)c3n2)C1` [Example 180], in that order: 11.3 nM and 10.6 nM.
On the same counts, the results for `CCc1cc2c(N3Cc4cc(C(=O)N(C)C)nn4CC[C@@H]3C)nc(OC[C@]3(C)CN(C)CC/C3=C\F)nc2c(F)c1-c1c(C)ccc2[nH]ncc12` (single isomer, unassigned) [Example 172A] are 419 nM and 199 nM.
For `CCc1cc2c(N3Cc4cc(C(=O)N(C)C)nn4CC[C@@H]3C)nc(OC[C@]3(C)CN(C)CC/C3=C\F)nc2c(F)c1-c1cccc2sc(N)c(C#N)c12` [Example 165A], in that order: 3.6 nM and 3.2 nM.
Turning to `CCc1cc2c(N3Cc4c(Cl)c(C(=O)N(C)C)nn4CCC3C)nc(OCC3(C)CN(C)CCC3=CF)nc2c(F)c1-c1c(F)ccc2sc(N)c(C#N)c12` (stereo not shown) [Example 194], the IC50 was less than 1.5 nM in assay [1] (setting [3]) and less than 1.5 nM in assay [2] (Homo sapiens, AGS, 72 h).
`CN1CC[C@H](C(F)F)[C@](C)(COc2nc(N3CCOC[C@@](C)(O)C3)c3cc([N+](=O)[O-])c(-c4cccc5sc(N)c(C#N)c45)c(F)c3n2)C1` (atropisomer, axis not shown; (Ra)) [Example 86A]: the IC50 in assay [1] (Method B, read-out: NCI-H727 IC50/nM) stood at 1.9 nM; in assay [2], 4.9 nM.
Turning to `CN1CC/C(=C\F)[C@](C)(COc2nc(N3CCCn4nc(C(=O)N(C)C)c(Cl)c4C3)c3cc(C4CC4)c(-c4ncc(F)c5sc(N)c(C#N)c45)c(F)c3n2)C1` [Example 167A], the IC50 in assay [1] (setting [3]) stood at 96.7 nM; in assay [2] (Homo sapiens, AGS, 72 h), 21.7 nM.
For `CCN1CC/C(=C\F)[C@](C)(COc2nc(N3Cc4cc(C(=O)N(C)C)nn4CC[C@@H]3C)c3cc(Cl)c(-c4nccc5sc(N)c(C#N)c45)c(C)c3n2)C1` [Example 276A], in that order: 33.4 nM and 18.5 nM.
On the same counts, the results for `CCc1cc2c(N3Cc4cc(C(=O)N(C)C)nn4CCC3C)nc(OCC3(C)CN(CC)CCC3=CF)nc2c(C)c1-c1c(F)ccc2sc(N)c(C#N)c12` (stereo not shown) [Example 189] are 2.6 nM and 2 nM.
For the compound `[2H]C([2H])([2H])N1CC/C(=C\F)[C@](C)(COc2nc(N3CCCn4nc(C(=O)N(C)C)cc4C3)c3cc(C(F)(F)F)c(-c4c(F)ccc5sc(N)c(C#N)c45)c(F)c3n2)C1` [Example 68, 5-(7-(2-amino-3-cyano-5-fluorobenzo[b]thiophene-4-yl)-8-fluoro-2-(((S,E)-4-(fluoromethylene)-3-methyl-1-(methyl-d3)piperidine-3-yl)methoxy)-6-(trifluoromethyl)quinazoline-4-yl)-N,N-dimethyl-5,6,7,8-tetrahydro-4H-pyrazolo[1,5-a][1,4]diazepine-2-formamide], the IC50 in assay [1] (setting [3]) was found to be 6.4 nM; in assay [2] (Homo sapiens, AGS, 72 h) it was 1.9 nM.
As to `[2H]C([2H])([2H])N1CCC(=CF)C(C)(COc2nc(N3Cc4cc(C(=O)N(C)C)nn4CCC3C)c3cc(CC)c(-c4c(F)ccc5sc(N)c(C#N)c45)c(Cl)c3n2)C1` (stereo not shown) [Example 192], the IC50 was 2 nM in assay [1] (setting [3]) and less than 1.5 nM in assay [2] (Homo sapiens, AGS, 72 h).
On the same counts, the results for `CCN1CC/C(=C\F)[C@](C)(COc2nc(N3Cc4cc(C(=O)N(C)C)nn4CC[C@@H]3C)c3cc(Cl)c(-c4c(F)ccc5sc(N)c(C#N)c45)c(C(F)F)c3n2)C1` (single isomer, unassigned) [Example 242A] are 6.3 nM and 5.4 nM.
For `[2H]C([2H])([2H])N1CCC(=CF)C(C)(COc2nc(N3Cc4cc(C(=O)N(C)C)nn4CCC3C)c3cc(CC)c(-c4c(F)ccc5sc(N)c(C#N)c45)c(C)c3n2)C1` (stereo not shown) [Example 188], in that order: 3.1 nM and 2.9 nM.
On the same counts, the results for `[2H]C([2H])([2H])N1CC/C(=C\F)[C@](C)(COc2nc(N3CCOC[C@@](C)(O)C3)c3cc(Cl)c(-c4cccc5sc(N)c(C#N)c45)c(F)c3n2)C1` [Example 84, 2-Amino-4-(6-chloro-8-fluoro-2-(((S,E)-4-(fluoromethylene)-3-methyl-1-(methyl-d3)piperidine-3-yl)methoxy)-4-((S)-6-hydroxy-6-methyl-1,4-oxazacycloheptane-4-yl)quinazoline-7-yl)benzo[b]thiophene-3-carbonitrile] are 77.7 nM and 59 nM.
Take `CN1CC/C(=C\F)[C@](C)(COc2nc(N3CCCn4nc(C(=O)N(C)C)cc4C3)c3cc(C(F)(F)F)c(-c4cccc5sc(N)c(C#N)c45)c(F)c3n2)C1` [Example 8, 5-(7-(2-Amino-3-cyanobenzo[b]thiophene-4-yl)-8-fluoro-2-(((S,E)-4-(fluoromethylene)-1,3-dimethylpiperidine-3-yl)methoxy)-6-(trifluoromethyl)quinazoline-4-yl)-N,N-dimethyl-5,6,7,8-tetrahydro-4H-pyrazolo[1,5-a][1,4]diazepine-2-formamide]: the IC50 in assay [1] (setting [3]) turned out to be 21.3 nM; in assay [2] (Homo sapiens, AGS, 72 h) it was 8.1 nM.
As for `CN1CC/C(=C\F)[C@](C)(COc2nc(N3CCCn4nc(C(=O)N(C)C)cc4C3)c3cc(/C=C\F)c(-c4cccc5sc(N)c(C#N)c45)c(F)c3n2)C1` (single isomer, unassigned) [Example 112B], the IC50 in assay [1] (setting [3]) stood at 11 nM; in assay [2] (Homo sapiens, AGS, 72 h), 5.3 nM.
